Results from patent publication US9714231B2, “Pyrrolidine GPR40 modulators” (BRISTOL-MYERS SQUIBB COMPANY, priority 2012, dated 2017).
Structures can show the parent of a compound that is named as a salt. Where two headings read alike, the source gives them in different places.

Key:
[1] = molecular target: T1, human GPR40 (Homo sapiens, UniProt O14842)
[2] = molecular target: T1, human GPR40; assay: FDSS-based intracellular calcium assay (Human GRP40 in vitro assay); assay type: cell-based; set-up: 3xFLAG; expressed in transfected cells; details: cells expressing GPR40, intracellular Ca2+ response, FDSS reader; read-out: hGPR40 EC50
How it was run: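 GPR40-expressing cells, plated overnight in serum-free phenol red-free DMEM, loaded with Fluo-3 in HBSS with 1.7 mM probenecid for 30 min at 37° C. Compounds in DMSO, diluted in assay buffer, added as 3× solutions; intracellular Ca^2+ response read on FDSS.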

T1 sequence (O14842 whole entry): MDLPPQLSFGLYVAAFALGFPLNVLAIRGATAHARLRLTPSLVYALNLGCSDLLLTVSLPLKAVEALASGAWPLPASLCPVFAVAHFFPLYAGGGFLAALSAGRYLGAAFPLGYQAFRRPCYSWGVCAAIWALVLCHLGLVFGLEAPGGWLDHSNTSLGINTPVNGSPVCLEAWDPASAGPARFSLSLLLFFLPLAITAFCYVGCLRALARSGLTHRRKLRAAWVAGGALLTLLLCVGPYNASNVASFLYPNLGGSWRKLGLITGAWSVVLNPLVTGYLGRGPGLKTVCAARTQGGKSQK

Structure (SMILES) | EC50 [1] [nM] | EC50 [2] [nM]
COc1ccc(F)c(N2CCC(Oc3ccc(N4CC(F)(F)C[C@@H]4CC(=O)O)cc3)C(C)C2)c1 (single isomer, unassigned) [Example 53, Isomer 2, HCl] | 49 | 49
COc1ccc(C2CCCC2(C)C)c(N2CCC(Oc3ccc(N4C[C@H](OC)C[C@@H]4CC(=O)O)cc3)CC2)c1 (single isomer, unassigned) [Example 65, Isomer 1] | 10 | 33
COc1ccc(F)c(N2CCC(Oc3ccc(N4C[C@H](C(F)(F)F)C[C@@H]4CC(=O)O)cc3)CC2)c1 [Example 1, 2-((2R,4R)-1-(4-((1-(2-Fluoro-5-methoxyphenyl)piperidin-4-yl)oxy)phenyl)-4-(trifluoromethyl)pyrrolidin-2-yl)acetic acid, HCl] | 310 | 210
COc1ccc(F)c(N2CCC(Oc3ccc(N4C[C@H](OC)C[C@@H]4CC(=O)O)cc3)CC2)c1 [Example 4, 2-((2R,4R)-1-(4-((1-(2-Fluoro-5-methoxyphenyl)piperidin-4-yl)oxy)phenyl)-4-methoxypyrrolidin-2-yl)acetic acid, HCl] | 240 | 170
COc1ccc(F)c(N2CCC(Cc3ccc(N4C[C@H](C(F)(F)F)C[C@@H]4CC(=O)O)cc3)CC2)c1 [Example 16, 2-((2R,4R)-1-(4-((1-(2-Fluoro-5-methoxyphenyl)piperidin-4-yl)methyl)phenyl)-4-(trifluoromethyl)pyrrolidin-2-yl)acetic acid, HCl] | 73 | 530
COc1ccc(F)c(N2CCC(Oc3ccc(N4C[C@H](OC(C)C)C[C@@H]4CC(=O)O)cc3)C(C)C2)c1 (stereo partly drawn) [Example 38, 2-((2R,4R)-1-(4-(((3,4-trans)-1-(2-Fluoro-5-methoxyphenyl)-3-methylpiperidin-4-yl)oxy)phenyl)-4-isopropoxypyrrolidin-2-yl)acetic acid, TFA] | 73 | 69
CCOc1ccc(F)c(N2CCC(Oc3ccc(N4CC(C)(OC)C[C@@H]4CC(=O)O)cc3)C(C)C2)c1 (stereo partly drawn) [Example 47, 2-((2R)-1-(4-(((3,4-trans)-1-(5-Ethoxy-2-fluorophenyl)-3-methylpiperidin-4-yl)oxy)phenyl)-4-methoxy-4-methylpyrrolidin-2-yl)acetic acid, HCl] | 18 | 170
COc1ccc(C)c(N2CCC(Oc3ccc(N4C[C@H](OC)C[C@@H]4CC(=O)O)cc3)CC2)c1 [Example 57, 2-((2R,4R)-4-Methoxy-1-(4-((1-(5-methoxy-2-methylphenyl)piperidin-4-yl)oxy)phenyl)pyrrolidin-2-yl)acetic acid, TFA] | 83 | 160
COc1ccc(C2CC2)c(N2CCC(Oc3ccc(N4C[C@H](OC)C[C@@H]4CC(=O)O)cc3)CC2)c1 [Example 59, 2-((2R,4R)-1-(4-(1-(2-Cyclopropyl-5-methoxyphenyl)piperidin-4-yloxy)phenyl)-4-methoxypyrrolidin-2-yl)acetic acid, TFA] | 38 | 290
COc1ccc(C2CCCC2)c(N2CCC(Oc3ccc(N4C[C@H](OC)C[C@@H]4CC(=O)O)cc3)CC2)c1 [Example 61, 2-((2R,4R)-1-(4-(1-(2-Cyclopentyl-5-methoxyphenyl)piperidin-4-yloxy)phenyl)-4-methoxypyrrolidin-2-yl)acetic acid] | 16 | 120
COc1ccc(CCC(C)(C)C)c(N2CCC(Oc3ccc(N4C[C@H](OC)C[C@@H]4CC(=O)O)cc3)CC2)c1 [Example 62, 2-((2R,4R)-1-(4-(1-(2-(3,3-Dimethylbutyl)-5-methoxyphenyl)piperidin-4-yloxy)phenyl)-4-methoxypyrrolidin-2-yl)acetic acid] | 13 | 89
CCOc1ccc(F)c(N2CCC(Oc3ccc(N4C[C@H](C(F)(F)F)C[C@@H]4CC(=O)O)cc3)CC2)c1 [Example 85, 2-((2R,4R)-1-(4-((1-(5-Ethoxy-2-fluorophenyl)piperidin-4-yl)oxy)phenyl)-4-(trifluoromethyl)pyrrolidin-2-yl)acetic acid] | 70 | 320
COc1cc(N2CCC(Oc3ccc(N4C[C@H](OC)[C@@H](C)[C@@H]4CC(=O)O)cn3)C(C)C2)c(Cl)cn1 (stereo partly drawn) [Example 91, 2-((2S,3S,4R)-1-(6-(((3,4-trans)-1-(5-Chloro-2-methoxypyridin-4-yl)-3-methylpiperidin-4-yl)oxy)pyridin-3-yl)-4-methoxy-3-methylpyrrolidin-2-yl)acetic acid, HCl] | 18 | 190
COc1cc(N2CCC(Oc3ccc(N4C[C@H](OC)C[C@@H]4CC(=O)O)cc3)CC2)c(F)cn1 [Example 96, 2-((2R,4R)-1-(4-((1-(5-Fluoro-2-methoxypyridin-4-yl)piperidin-4-yl)oxy)phenyl)-4-methoxypyrrolidin-2-yl)acetic acid, diethylammonium salt] | 520 | 840
COc1cc(N2CCC(Oc3ccc(N4C[C@H](OC)[C@@H](C)[C@@H]4CC(=O)O)cc3F)C(C)C2)c(Cl)cn1 (stereo partly drawn) [Example 98, 2-((2S,3S,4R)-1-(4-(((3,4-trans)-1-(5-Chloro-2-methoxypyridin-4-yl)-3-methylpiperidin-4-yl)oxy)-3-fluorophenyl)-4-methoxy-3-methylpyrrolidin-2-yl)acetic acid] | 100 | 102
COc1cc(N2CCC(Oc3ccc(N4C[C@H](OC)[C@@H](C)[C@@H]4CC(=O)O)cc3F)CC2)c(Cl)cn1 [Example 99, 2-((2S,3S,4R)-1-(4-((1-(5-Chloro-2-methoxypyridin-4-yl)piperidin-4-yl)oxy)-3-fluorophenyl)-4-methoxy-3-methylpyrrolidin-2-yl)acetic acid] | 290 | 289
COc1cc(N2CCC(Cc3ccc(N4C[C@H](OC)C[C@@H]4CC(=O)O)cc3)CC2)c(Cl)cn1 [Example 102, 2-((2R,4R)-1-(4-((1-(5-Chloro-2-methoxypyridin-4-yl)piperidin-4-yl)methyl)phenyl)-4-methoxypyrrolidin-2-yl)acetic acid] | 950 | 952
COc1cc(N2CCC(Oc3ccc(N4C[C@H](O)[C@@H](C)[C@@H]4CC(=O)O)c(F)c3)C(C)C2)c(Cl)cn1 (stereo partly drawn) [Example 115, 2-((2S,3S,4R)-1-(4-(((3,4-trans)-1-(5-Chloro-2-methoxypyridin-4-yl)-3-methylpiperidin-4-yl)oxy)-2-fluorophenyl)-4-hydroxy-3-methylpyrrolidin-2-yl)acetic acid] | 1600 | 1620

The remaining lines, values ahead:

EC50 [1] [nM] | EC50 [2] [nM] | Structure (SMILES)
4 | 38 | COc1cc(N2CCC(Oc3ccc(N4C[C@H](OC)[C@@H](C)[C@@H]4CC(=O)O)cn3)CC2)c(C2CCCC2(C)C)cn1 (single isomer, unassigned) [Example 151, Isomer 1, HCl]
14 | 140 | CCOc1ccc(F)c(N2CCC(Oc3ccc(N4C[C@H](OC)[C@@H](C)[C@@H]4CC(=O)O)cn3)C(C)C2)c1 (stereo partly drawn) [Example 117, 2-((2S,3S,4R)-1-(6-(((3,4-trans)-1-(5-Ethoxy-2-fluorophenyl)-3-methylpiperidin-4-yl)oxy)pyridin-3-yl)-4-methoxy-3-methylpyrrolidin-2-yl)acetic acid, HCl]
11 | 75 | COc1cc(N2CCC(Oc3ccc(N4C[C@H](OC)[C@@H](C)[C@@H]4CC(=O)O)cc3)C(C)C2)c(Cl)cn1 (stereo partly drawn) [Example 119, 2-((2S,3S,4R)-1-(4-(((3,4-trans)-1-(5-Chloro-2-methoxypyridin-4-yl)-3-methylpiperidin-4-yl)oxy)phenyl)-4-methoxy-3-methylpyrrolidin-2-yl)acetic acid, HCl]
42 | 140 | CCOc1ccc(F)c(N2CCC(Oc3ccc(N4C[C@H](OC)[C@@H](C)[C@@H]4CC(=O)O)cc3)CC2)c1 [Example 121, 2-((2S,3S,4R)-1-(4-((1-(5-Ethoxy-2-fluorophenyl)piperidin-4-yl)oxy)phenyl)-4-methoxy-3-methylpyrrolidin-2-yl)acetic acid, TFA]
51 | 270 | CCOc1ccc(F)c(N2CCC(Oc3ccc(N4C[C@H](c5ccc(OC)nc5)C[C@@H]4CC(=O)O)cc3)CC2)c1 [Example 123, 2-((2R,4S)-1-(4-((1-(5-Ethoxy-2-fluorophenyl)piperidin-4-yl)oxy)phenyl)-4-(6-methoxypyridin-3-yl)pyrrolidin-2-yl)acetic acid, TFA]
47 | 380 | CCOc1ccc(F)c(N2CCC(Oc3ccc(N4C[C@H](Cc5cccc(OC)c5)C[C@@H]4CC(=O)O)cc3)CC2)c1 [Example 124, 2-((2R,4R)-1-(4-((1-(5-Ethoxy-2-fluorophenyl)piperidin-4-yl)oxy)phenyl)-4-(3-methoxybenzyl)pyrrolidin-2-yl)acetic acid, TFA]
55 | 250 | COc1cc(N2CCC(Oc3ccc(N4C[C@H](OC)C[C@@H]4CC(=O)O)cn3)C(C)C2)c(Cl)cn1 (stereo partly drawn) [Example 132, 2-((2R,4R)-1-(6-(((3,4-trans)-1-(5-Chloro-2-methoxypyridin-4-yl)-3-methylpiperidin-4-yl)oxy)pyridin-3-yl)-4-methoxypyrrolidin-2-yl)acetic acid]
49 | 380 | COc1cc(N2CCC(Oc3ccc(N4C[C@H](C(F)(F)F)C[C@@H]4CC(=O)O)cn3)C(C)C2)c(Cl)cn1 (stereo partly drawn) [Example 133, 2-((2R,4R)-1-(6-(((3,4-trans)-1-(5-Chloro-2-methoxypyridin-4-yl)-3-methylpiperidin-4-yl)oxy)pyridin-3-yl)-4-(trifluoromethyl)pyrrolidin-2-yl)acetic acid]
27 | 190 | COc1cc(N2CCC(Oc3ccc(N4C[C@H](C(F)(F)F)C[C@@H]4CC(=O)O)c(F)c3)C(C)C2)c(Cl)cn1 (stereo partly drawn) [Example 138]
